Experimental data: the METLIN SMRT retention time set (Domingo-Almenara et al. 2019)

Assay: gradient 5% acetonitrile 3 min, to 50% in 2 min, to 85% in 15 min, held 3 min, 100 µL/min
Details: column: Zorbax Extend-C18 2.1 x 50 mm; eluents: water / acetonitrile, 0.1% formic acid
In short: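 Retention times of pure standards were taken from adduct peaks that were selected by computer and manually inspected. Over 3 months, mixtures of ~100 molecules were run by HPLC–quadrupole time-of-flight mass spectrometry in positive and negative ionization mode. The Zorbax Extend-C18 column (2.1 × 50 mm, 1.8 μm) ran at 100 μL/min in water and acetonitrile, each containing 0.1% formic acid, with 40 μL dead volume and 900 μL dwell volume.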

Point of comparison: `O=S1(=O)C[C@H](N2CCN(c3ccccc3F)CC2)[C@@H](S(=O)(=O)c2ccc(Cl)cc2)C1`, RP-LC retention time 986 s. Against it:
- Cc1ccc(CN2CCN(CC(=O)NCc3cccnc3)C(=O)C2=O)cc1 — lower, 859 s
- COc1ccc(-c2csc(C)n2)cc1S(=O)(=O)N1CCN(c2ccccc2F)CC1 — higher, 1110 s
- Cc1cc(C)c(S(=O)(=O)N2CCC3(CC2)NCCN=C3NCc2ccccc2C)c(C)c1 — lower, 854 s
- O=C(Nc1nnc(-c2ccccc2Cl)o1)c1cccc([N+](=O)[O-])c1 — lower, 767 s
- CCC(=O)Nc1cc(C(=O)NCc2ccc(N3CCOCC3)cc2)c2ccc(C)nc2c1 — lower, 585 s
- COc1ccc(-c2nc3ncccn3c2Nc2ccc3c(c2)OCCO3)cc1 — lower, 674 s
- CCN1CCN(C(=O)CN2c3ccc(Br)cc3-c3ccccc3S2(=O)=O)CC1 — lower, 670 s
- N#Cc1cccc(C(=O)NC2CCN(c3cc(-c4cccs4)[nH]n3)C2)c1 (stereo not given) — lower, 701 s
- Cc1ccc2c(c1)NN=C(C(=O)N1CCOCC1)S2(=O)=O — lower, 639 s
- CCN(CC)C(=O)c1ccc2c(c1)N(CC(=O)NC1CCCCC1)C(=O)C1CCCCN21 (stereo not given) — lower, 838 s
- Cc1ccc(CNC(=O)C2(C)CN(S(C)(=O)=O)CC(=O)N2c2ccc(F)cc2)cc1 (stereo not given) — lower, 746 s
- COc1ccc(OC)c(NC(=O)C2CCCN(c3nnc4ccccn34)C2)c1 (stereo not given) — lower, 667 s
- COc1ccc(NC(=O)C2CCCN(S(=O)(=O)c3c[nH]c(C(=O)N4CCCC4)c3)C2)cc1 (stereo not given) — lower, 732 s
- CCCCOc1ccc(-c2csc(Nc3ccccc3)n2)cc1 — higher, 1400 s
- COc1cccc(OC)c1C(=O)Nc1ccc2c(c1)CCCN2C(=O)C1CC1 — lower, 722 s
- Cc1cccc(N2CCN(c3ncc(S(=O)(=O)c4ccc(C)c(C)c4)c(N)n3)CC2)c1 — higher, 1190 s
- O=C(NC1CCCCC1)c1cccc2c1CCN2C(=O)C1CC1 — lower, 832 s
- Cc1ccc(NC(=O)C2CCN(S(=O)(=O)c3ccc4c(c3)CCCC(=O)N4)CC2)cc1N(C)C — lower, 698 s
- O=C(Nc1nnc(SCc2cccc(F)c2)s1)C1CCCCC1 — higher, 1010 s
- Cc1cc2c(c(=O)n(-c3ccc(F)cc3)c(=O)n2CC(=O)Nc2cccc(Br)c2)n1C — lower, 861 s
- CCN1CCCn2cc(S(=O)(=O)N(CC)c3ccccc3)cc2C1=O — lower, 780 s
- CSc1cccc(NC(=O)Cn2cccc(-c3nc(-c4ccc(Br)cc4)no3)c2=O)c1 — higher, 1050 s
- O=S(=O)(c1ccc2c(c1)CCC2)N1CCCC(Cn2c(C3CC3)nc3cccnc32)C1 (stereo not given) — lower, 775 s
- CCn1cc(C(=O)NCCc2ccc(Cl)cc2)c(S(=O)(=O)N2CCSCC2)n1 — lower, 935 s
- Cc1ccc(-n2nc(C)c3sc(N(C)CC(=O)N4CCN(c5ccccn5)CC4)nc32)cc1 — lower, 709 s
- CCOC(=O)c1cn(Cc2cccc(C)c2)c2nc(C)ccc2c1=O — lower, 925 s
- CCCN(CCC)c1nc(C(=O)OCC)nc2ccccc12 — lower, 812 s
- N#Cc1cccc(NC(=O)Cn2cccc(-c3nc(-c4ccc(F)cc4)no3)c2=O)c1 — lower, 859 s
- O=C(c1nc2nc(-c3ccco3)cc(C(F)(F)F)n2n1)N1CCN(c2ccccn2)CC1 — lower, 630 s
- CC(NC(=O)c1ccc(-c2cccs2)nc1)c1ccccc1 (stereo not given) — lower, 910 s
- O=C(NC(=O)c1c(Cl)nc2sccn12)Nc1ccc(Cl)cc1 — lower, 977 s
- CCc1nc(N)n(CC(=O)Nc2ccc(C)c(C)c2)c(=O)c1C — lower, 650 s
- CCc1cc(=O)n(CC(=O)NCCOC)c(N2CCOCC2)n1 — lower, 577 s
- CCn1ncc(Cl)c1C(=O)N1CCCC1c1ccccc1F (stereo not given) — lower, 922 s
- COc1ccc(NC(=O)Cn2c(C)cc(-c3nnc(C4CC4)o3)c2C)cc1 — lower, 779 s
- O=C(Nc1ccccc1)N1CCC(n2cnc3c(Cl)cccc3c2=O)CC1 — lower, 784 s
- CCOc1ccc(-n2c(-c3ccc(Cl)cc3)cn3c4c(=O)n(C)c(=O)n(C)c4nc23)cc1 — higher, 1050 s
- O=C(C1CCCC1)N1CCN(c2cc(-c3ccccc3)[nH]n2)CC1 — lower, 782 s
- COc1ccc(C2=Nc3ccccc3N(CC(=O)Nc3ccc4c(c3)OCCO4)C(=O)C2)cc1 — lower, 913 s
- O=C(NCc1csc(C2CCCN(C(=O)COc3ccccc3)C2)n1)C1CC1 (stereo not given) — lower, 718 s
- Cc1noc(C2CN(C(=O)NC(C)(C)C)CC23CCOCC3)n1 (stereo not given) — lower, 670 s
- CCCS(=O)(=O)c1nc2ccc(NS(=O)(=O)c3ccc(F)cc3Cl)cc2s1 — lower, 973 s
- Cc1cc(C)cc(NS(=O)(=O)c2ccc3c(c2)C(=O)N(C)c2ncccc2O3)c1 — higher, 1000 s
- CCc1nc2c(NC(=O)c3ccccc3C(F)(F)F)cccn2n1 — lower, 866 s
- CCCNC(=O)C1CCCN(c2ccc(SCC(=O)NCCc3ccc(Cl)cc3)nn2)C1 (stereo not given) — lower, 676 s
- COCCn1cc2c3c(cccc31)CN(C(=O)c1ccc(Cl)cc1)CC2 — higher, 1000 s
- Cc1cc(C)c(NC(=O)Cn2c(=O)cc(-c3nc(C)no3)c3ccccc32)c(C)c1 — lower, 895 s
- CCCn1cc(C2=CCN(S(=O)(=O)c3ccc(F)c(Cl)c3)CC2)c2cccnc21 — higher, 1190 s
- COc1ccc(NC(=O)Cn2ccnc2-c2ccnc(N3CCOCC3)c2)cc1OC — lower, 578 s
- CC(=O)Nc1cccc(NC(=O)C2CC(=O)N(c3n[nH]c4ccccc34)C2)c1 (stereo not given) — lower, 625 s
- CCOc1ccccc1NC(=O)N1c2ccccc2CC1c1nc(C(C)C)no1 (stereo not given) — higher, 1220 s
- COc1ccc(-c2nc3cc(F)ccc3s2)cc1OC — higher, 1030 s
- COc1cccc(-c2cn3ccn(-c4ccc(F)c(Cl)c4)c(=O)c3n2)c1 — lower, 859 s
- COc1ccc(Nc2nc(-c3nnn(-c4cc(F)ccc4F)c3C)ns2)cc1 — lower, 949 s
- COc1cc(OC)cc(C2(C#N)CCN(C)CC2)c1 — lower, 665 s
- Cc1cccc(CNC(=O)C2(C)Cn3cnc(C(=O)NCc4ccc(F)cc4)c3C(=O)N2C2CC2)c1 (stereo not given) — lower, 798 s
- O=C(Nc1cccc(Cl)c1)C1CCCN(C(=O)Cc2cccc3ccccc23)C1 (stereo not given) — higher, 1070 s
- Cc1c(-c2noc(C(=O)NCCN3CCCCCC3)n2)oc2ccccc12 — lower, 710 s
- Cc1cc(S(=O)(=O)[C@H]2CS(=O)(=O)C[C@@H]2N2CCN(c3ccc(F)cc3)CC2)ccc1F — lower, 662 s
- CCC(=O)N1CCc2sc(C(=O)N3CCN(c4ccccc4F)CC3)cc2C1 — lower, 827 s
- Cc1ccc(CNC(=O)N2CCC(n3c(C(F)(F)F)nc4cccnc43)CC2)cc1 — lower, 844 s
- COc1ccc(N2CCN(C(=O)c3ccc(-c4cccs4)nc3)CC2)cc1 — lower, 852 s
- COCCCNC(=O)c1nnc(-c2ccc(S(=O)(=O)N(C)C)cc2)o1 — lower, 717 s
- COc1ccc(C(=O)N2CCc3ccc(C(=O)NCc4cccs4)cc32)cc1 — lower, 806 s
